Source: patent US6437157B1, “20-substituted steroids” (Hoechst Marion Roussel, priority 1994, dated 2002)

Key:
Sigma receptor [1] = assay: Sigma receptor relative bond affinity (RBA), 3H PPP displacement, rat brain membranes; assay type: binding; conditions: for Relative bond affinity (RBA) for the Sigma receptor, Brain (rat): 3 nM 3H PPP, haloperidol set equal to 100; for Displacement of 3H PPP from the Sigma receptor (in words): also evaluated on testicles
Description: (§1) The relative bond affinity was evaluated for preparations of rat brain and testicle membranes.
(§2) Male Sprague-Dawley rats originating from Iffa Credo and weighing approximately 200 g were used. The animals were scarified by decapitation and the brain and testicles were removed and homogenized in 10 to 25 volumes of 50 mM Tris-HCl buffer (pH 7.7) at 4° C. using an Ultrathurax. The homogenates were centrigued at 30,000 g for 15 minutes at 4° C. and the pellets were washed 3 times by resuspension in the same buffer and centrifugation under the same conditions. The membranes obtained in this way were stored at −80° C.
(§3) The marker of the sigma receptors used was ^3H PPP (propyl-3-(propyl-3-(3-hydroxyphenyl)-piperidine) of NEN having a specific activity of 3404 GBq/mmol. The membranes were suspended in the 50 mM Tris-HCl buffer, pH 8.0 to obtain a concentration of proteins of approximately 0.6 mg/ml for the testicles and 1 mg/ml for the brain. Aliquots of the homogenate were incubated for 90 minutes at 25° C. in a total volume of 0.5 ml with 3 nM of ^3H PPP in the presence of increasing concentrations of reference product (haloperidol) or of the products to be tested. At the end of the incubation, the 3H PPP bound to the membranes was separated from the free ^3H PPP by rapid filtration on Whatman GF/C filters pre-treated beforehand with 0.05% of polyethyleneimine. The precipitate was washed twice with 5 ml of Tris-HCl buffer and the radioactivity was counted after the addition of 20 ml of Aqualyte scintillating liquid (Baker).
(§4) The following two curves were drawn: percentage of bound tritiated marker 100×B/BO as a function of the logarithm of the concentration of unlabelled reference product or as a function of the logarithm of the concentration of unlabelled test product. The straight line of the following equation was determined:
(§5) BO=concentration of the bound tritiated marker in the absence of any unlabelled product.
B=concentration of the bound tritiated marker in the presence of a concentration X of unlabelled product.
Bmin=concentration of the bound tritiated marker in the presence of a large excess of the unlabelled reference product (5,000 nM).
The intersections of the straight line I50 and the curves allowed the evaluation of the concentrations of the unlabelled reference product (CH) and of the unlabelled test product (CX) which inhibited by 50% the specific binding of the tritiated marker on the receptor. The relative bond affinity (RBA) of the test product was determined by the equation:
The RBA of the haloperidol was arbitrarily set equal to 100.

human spermatozoids = assay: Measurement of intracellular calcium in human spermatozoids (Fura2-AM fluorescence); assay type: cell-based
Description: The human sperm originated from healthy donors. […] The mobile spermatozoids were incubated for a minimum of 2 hours in the BWW/HSA capacitating medium and were then incubated at a concentration of 5-10×10^6/ml with Fura2-AM to a final concentration 2 μM at 37° C. for 45 minutes. After washing by centrifugation at 600 g for 10 minutes in. BWW without HSA, the spermatozoids were suspended at a concentration of 4×10^6/ml. The florescence signal was measured at 37° C. using a spectrofluorimeter at excitation wave lengths of 340 and 380 nm (PTIM 2001-Kontron) or at 340, 360 and 380 nm (Hitachi F 2000—B. Braun Science Tec.). The fluorescence emission was recorded at 505 nm. The progesterone or the products to be tested, dissolved in absolute ethanol, were added to the incubation medium at a final concentration of 0.1% of ethanol. When an antagonistic effect of the progesterone was sought, the product was added to the medium 2 minutes before the progesterone. At the end of the each dosage, 5 μM of ionomycin were added to the sample to measure the maximum fluorescence signal. […] These values allowed the intracellular concentration of calcium ([Ca^2+]i) to be calculated by the method described by Grunkiewicz et al. 1985, J. Biol. Chem., Vol. 260, pp. 3440-3450).

Sigma receptor [2] = assay: Sigma receptor relative bond affinity (RBA), 3H PPP displacement, rat testicle membranes; assay type: binding; conditions: 3 nM 3H PPP, haloperidol set equal to 100
Description: as §1, §2, §3, §4, §5
B=concentration of the bound tritiated marker in the presence of a concentration X of unlabelled product. […]

SMILES	Relative bond affinity (RBA) for the Sigma receptor, Brain (rat) (Sigma receptor [1])	Displacement of 3H PPP from the Sigma receptor (in words) (Sigma receptor [1])	[Ca2+]i relative to the basal level set equal to 1 (human spermatozoids; 2 minutes pre-treatment with U 10^-5M + PROG. 10^-5M, Mean±SEM n=3)	[Ca2+]i relative to the basal level set equal to 1 (human spermatozoids; 2 minutes pre-treatment with U 10^-6M + PROG. 10^-5M, Mean±SEM n=3)	[Ca2+]i relative to the basal level set equal to 1 (human spermatozoids; 2 minutes pre-treatment with U 10^-7M + PROG. 10^-5M, Mean±SEM n=3)	[Ca2+]i relative to the basal level set equal to 1 (human spermatozoids; 2 minutes pre-treatment with U 10^-8M + PROG. 10^-5M, Mean±SEM n=3)	[Ca2+]i relative to the basal level set equal to 1 (human spermatozoids; Pre-treatment 2 mn with U 10^-5M + PROG. 10^-5M, Mean±SEM n=8)	Antagonistic effect on the progesterone-induced [Ca2+]i increase (in words) (human spermatozoids; Product U 10^-5M added 2 minutes before the progesterone)	[Ca2+]i relative to the basal level set equal to 1 (human spermatozoids; U 10^-5M alone, Mean±SEM n=8)	Relative bond affinity (RBA) for the Sigma receptor, Testicle (rat) (Sigma receptor [2])	[Ca2+]i relative to the basal level set equal to 1 (human spermatozoids; PROG. 10^-5M alone, Mean±SEM n=3)	[Ca2+]i relative to the basal level set equal to 1 (human spermatozoids; PROG. 10^-5M alone, Mean±SEM n=8)	Effect on the intracellular calcium of human spermatozoids (in words) (human spermatozoids; progesterone 10^-5 M alone)
C[C@H](NCCN(C)C)[C@@H]1CC[C@@H]2[C@H]3CCc4cc(O)ccc4[C@@H]3CC[C@]21C [Example 1, (20S)(8α,9β,13α,14β,17α) 20-((dimethylamino)-ethyl)-amino-19-nor-Δ^1,3,5(10)-pregnatrien-3-ol]	4.3	capable of displacing ^3H PPP	1.0 ± 0.0	2.63 ± 0.57	4.26 ± 1.93	3.33 ± 0.87	0.95 ± 0.05	completely antagonized the effect of progesterone	0.95 ± 0.05	58.0	–	–	–
O=C(CCCN1CCC(O)(c2ccc(Cl)cc2)CC1)c1ccc(F)cc1 [Haloperidol]	100.0	–	–	–	–	–	–	–	–	100.0	–	–	–
CC(=O)[C@H]1CC[C@H]2[C@@H]3CCC4=CC(=O)CC[C@]4(C)[C@H]3CC[C@]12C [Progesterone, reference compound]	0.7	capable of displacing ^3H PPP	–	–	–	–	–	–	–	0.3	3.67 ± 0.97	5.76 ± 0.84	induced a transitory increase of the [Ca^2+]i
